Measured values published in PMC8151276, “An Integrated Approach toward NanoBRET Tracers for Analysis of GPCR Ligand Engagement” (Molecules, 2021).

Assays:
Type in all cases: binding
AVPR1A = target: T1, AVPR1A (Homo sapiens, UniProt P37288); assay: NanoBRET screen HiBiT-AVPR1A in HEK293
T1 construct: purchased Promega (in-house HiBiT-GPCR construct library, NanoBRET)
Experimental: (§1) Each tracer candidate was screened across the entire library of HiBiT-GPCR constructs using NanoBRET as the detection modality. As depicted in Figure 4A, the specificity of interactions was evaluated through decrease in BRET due to competitive displacement of a bound tracer by excess parental compound. Each tracer was analyzed for binding to each HiBiT-GPCR fusion in the absence and in the presence of competing parental compound. Briefly, HEK293 cells were transfected with HiBiT-GPCR constructs diluted into promoterless DNA to reduce expression and maximize translocation to the cell surface. Each tracer candidate was then screened at concentrations of 1 μM and 0.1 μM across cells expressing these fusions. Cells were treated for 1.5 h with tracer either alone or in the presence of 20 μM competing parental compound (i.e., control). BRET was measured upon addition of purified LgBiT and subsequent complementation with HiBiT genetically fused to a GPCR. The specificity of interactions was assessed through a decrease in BRET signal due to competitive displacement of the bound tracer. To further gauge the robustness of these interactions, the fold response over the control (i.e., BRETtracer/BRETcontrol) was calculated. We chose a 1.5-fold response, which translates to ≥7-fold signal over noise as the minimal threshold required to score an interaction as positive.
(§2) HiBiT-GPCR DNA constructs were diluted in 10 mM Tris pH 8 to a final concentration of 0.01 μg/μL, arrayed in 96-well plates and stored at −20 °C. For transfection, HEK293 cells were suspended in Opti-MEM (without phenol red) supplemented with 2% fetal bovine serum (Seradigm) and 100 units/mL penicillin–streptomycin (Gibco) at a final concentration of 220,000 cells/mL and dispensed into white 96-well plates at 90 μL/well. Subsequent transfections and screens were carried using an Agilent Bravo Automated Liquid Handling Platform. First, the 96-well HiBiT DNA arrays were diluted 25-fold in Opti-MEM (without serum or phenol red) to a final concentration of 0.0004 μg/μL and 20 μL of the diluted DNAs were transferred into new 96-well plates. Next, promoterless carrier DNA (1 μg/μL) was diluted 25-fold (0.04 μg/μL) and then dispensed into the diluted arrays at 20 μL/well. Following brief mixing, Viafect transfection reagent (Promega) diluted 16-fold into Opti-MEM was dispensed into the plates at 40 μL/well. After mixing by pipetting, plates were incubated for 10 min on the pipetting station deck. The DNA-transfection reagent complexes were then added to plates containing cells. To facilitate the screen, 10 μL of DNA-transfection reagent complexes were added in duplicates to the top 4 and bottom 4 rows, resulting in two identical 48-well arrays per plate. Plates with transfected cells were incubated for 18–20 h at 37 °C/5% CO2. A screen of each tracer across the entire library using two different concentrations requires duplicate plates of transfected cells. Depending on the number of tracers being screened, transfections can be scaled up using the same ratios. The next day, for each tracer, four 20× screening solutions in tracer dilution buffer (Promega) were prepared: two duplicates at final concentration of 20 μM and two duplicates at a final concentration of 2 μM. […] The four resulting solutions were diluted 4-fold in Opti-MEM without serum or phenol red to generate 5× solutions (5 µM and 0.5 µM tracer +/− 100 μM competing compound). To screen the library, a BioTek MultiFlo FX liquid dispenser was used to dispense 22.5 µL of tracer solution to the top 4 rows and 22.5 µL tracer + competing compound solution to the 4 bottom rows. Plates were briefly mixed on an orbital shaker and incubated for 1.5 h at room temperature. […] Plates were briefly mixed on an orbital shaker and incubated for 15 min to allow complementation.

HTR7 = target: T2, HTR7 (Homo sapiens, UniProt P34969); assay: NanoBRET screen HiBiT-HTR7 in HEK293
T2 construct: purchased Promega (in-house HiBiT-GPCR construct library, NanoBRET)
T2 sequence (P34969 whole entry): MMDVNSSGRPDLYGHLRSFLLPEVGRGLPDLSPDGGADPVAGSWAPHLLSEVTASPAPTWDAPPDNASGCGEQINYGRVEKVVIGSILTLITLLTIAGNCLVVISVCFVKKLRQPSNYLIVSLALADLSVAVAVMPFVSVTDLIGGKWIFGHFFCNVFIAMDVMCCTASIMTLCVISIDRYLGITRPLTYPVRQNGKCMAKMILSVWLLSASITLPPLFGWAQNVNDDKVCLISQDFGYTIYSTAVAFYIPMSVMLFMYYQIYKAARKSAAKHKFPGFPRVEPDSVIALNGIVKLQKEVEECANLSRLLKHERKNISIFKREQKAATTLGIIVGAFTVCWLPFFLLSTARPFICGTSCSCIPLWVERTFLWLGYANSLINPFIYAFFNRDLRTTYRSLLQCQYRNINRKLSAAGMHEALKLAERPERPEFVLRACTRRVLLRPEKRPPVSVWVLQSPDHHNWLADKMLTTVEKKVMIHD
Experimental: as §1, §2

TSHR = target: T3, TSHR (Homo sapiens, UniProt P16473); assay: NanoBRET screen HiBiT-TSHR in HEK293
T3 construct: purchased Promega (in-house HiBiT-GPCR construct library, NanoBRET)
T3 sequence (P16473 21-764): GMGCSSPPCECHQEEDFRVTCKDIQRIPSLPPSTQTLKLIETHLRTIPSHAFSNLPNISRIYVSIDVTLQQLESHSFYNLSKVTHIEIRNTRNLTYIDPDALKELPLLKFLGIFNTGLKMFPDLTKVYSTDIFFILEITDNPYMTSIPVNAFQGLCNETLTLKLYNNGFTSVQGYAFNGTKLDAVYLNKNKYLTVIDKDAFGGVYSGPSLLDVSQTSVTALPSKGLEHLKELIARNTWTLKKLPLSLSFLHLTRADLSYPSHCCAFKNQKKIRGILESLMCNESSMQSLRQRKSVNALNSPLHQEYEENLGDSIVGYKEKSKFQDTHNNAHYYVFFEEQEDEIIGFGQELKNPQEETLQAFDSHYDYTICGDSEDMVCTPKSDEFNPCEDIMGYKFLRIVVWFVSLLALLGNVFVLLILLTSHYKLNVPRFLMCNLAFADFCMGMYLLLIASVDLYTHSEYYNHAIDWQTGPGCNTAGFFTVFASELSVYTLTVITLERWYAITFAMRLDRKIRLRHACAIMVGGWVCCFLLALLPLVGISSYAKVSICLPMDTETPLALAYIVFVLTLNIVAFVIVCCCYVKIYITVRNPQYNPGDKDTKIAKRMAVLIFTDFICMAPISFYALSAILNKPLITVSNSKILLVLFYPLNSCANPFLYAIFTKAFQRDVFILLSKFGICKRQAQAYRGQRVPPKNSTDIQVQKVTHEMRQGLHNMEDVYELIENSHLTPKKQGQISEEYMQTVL
Experimental: as §1, §2

CNR2 = target: T4, CNR2 (Homo sapiens, UniProt P34972); assay: NanoBRET screen HiBiT-CNR2 in HEK293
T4 construct: purchased Promega (in-house HiBiT-GPCR construct library, NanoBRET)
T4 sequence (P34972 whole entry): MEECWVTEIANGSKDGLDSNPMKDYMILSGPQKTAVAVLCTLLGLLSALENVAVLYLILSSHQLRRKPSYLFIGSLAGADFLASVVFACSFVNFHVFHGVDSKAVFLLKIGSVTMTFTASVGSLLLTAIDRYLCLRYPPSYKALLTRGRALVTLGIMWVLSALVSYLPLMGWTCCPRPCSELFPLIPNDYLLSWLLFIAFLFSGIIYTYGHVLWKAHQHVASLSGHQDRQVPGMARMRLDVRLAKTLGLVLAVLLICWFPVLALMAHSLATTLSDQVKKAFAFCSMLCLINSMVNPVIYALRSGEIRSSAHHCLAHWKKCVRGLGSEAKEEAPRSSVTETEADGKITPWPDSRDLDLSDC
Experimental: as §1, §2

T1 sequence (P37288 whole entry): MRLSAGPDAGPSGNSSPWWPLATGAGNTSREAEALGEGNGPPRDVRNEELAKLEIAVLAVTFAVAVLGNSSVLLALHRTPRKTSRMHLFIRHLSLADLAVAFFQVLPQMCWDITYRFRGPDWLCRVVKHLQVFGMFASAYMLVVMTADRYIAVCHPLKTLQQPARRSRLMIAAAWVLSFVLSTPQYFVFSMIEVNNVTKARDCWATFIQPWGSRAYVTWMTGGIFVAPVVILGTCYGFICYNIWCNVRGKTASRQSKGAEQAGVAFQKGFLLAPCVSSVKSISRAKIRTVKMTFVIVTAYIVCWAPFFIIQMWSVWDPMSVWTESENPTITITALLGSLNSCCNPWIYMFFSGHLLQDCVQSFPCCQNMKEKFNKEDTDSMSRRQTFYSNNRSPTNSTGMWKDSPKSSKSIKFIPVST

| Compound | NanoBRET Fold Response (AVPR1A; AVPR1A, tracer 0.1μM) | NanoBRET Fold Response (AVPR1A; AVPR1A, tracer 1μM) | NanoBRET Fold Response (HTR7; HTR7, tracer 0.1μM) | NanoBRET Fold Response (HTR7; HTR7, tracer 1μM) | NanoBRET Fold Response (TSHR; TSHR, tracer 0.1μM) | NanoBRET Fold Response (TSHR; TSHR, tracer 1μM) | NanoBRET Fold Response (CNR2; CNR2, tracer 0.1μM) | NanoBRET Fold Response (CNR2; CNR2, tracer 1μM) | further results |
| --- | --- | --- | --- | --- | --- | --- | --- | --- | --- |
| O=C(CCOCCOCCOCCOCCNC(=O)CCc1ccc2n1[B-](F)(F)[N+]1=C(c3ccc[nH]3)C=CC1=C2)NCCCN1CCN(C2=Nc3cc(Cl)ccc3Nc3ccccc32)CC1 [Clozapine-a-2-NB590] | – | – | – | – | – | – | – | – | NanoBRET Fold Response (AVPR1A; AVPR1A, 0.1μM tracer): 0.89; NanoBRET Fold Response (AVPR1A; AVPR1A, 1μM tracer): 0.99; NanoBRET Fold Response (HTR7; HTR7, 0.1μM tracer): 1.22; NanoBRET Fold Response (HTR7; HTR7, 1μM tracer): 1.08; NanoBRET Fold Response (TSHR; TSHR, 0.1μM tracer): 0.92; NanoBRET Fold Response (TSHR; TSHR, 1μM tracer): 1.05; NanoBRET Fold Response (CNR2; CNR2, 0.1μM tracer): 1.06; NanoBRET Fold Response (CNR2; CNR2, 1μM tracer): 1.19 |
| CCCn1c(=O)c2[nH]c(-c3ccc(OCC(=O)NCCNC(=O)CCOCCNC(=O)c4ccc(CNC(=O)CCc5ccc6n5[B-](F)(F)[N+]5=C(c7ccc[nH]7)C=CC5=C6)cc4)cc3)nc2n(CCC)c1=O [XAC-3-NB590] | 1.25 | 1.36 | 0.99 | 0.96 | 1.08 | 1.03 | 1.04 | 1.09 | – |
| O=C(CCc1ccc2n1[B-](F)(F)[N+]1=C(c3ccc[nH]3)C=CC1=C2)NCc1ccc(C(=O)NCCOCCC(=O)N[C@@H]2CC[C@@]3(O)[C@H]4Cc5ccc(O)c6c5[C@@]3(CCN4CC3CC3)[C@H]2O6)cc1 [Naltrexone-3-NB590] | 1.34 | 0.76 | 0.97 | 0.97 | 1.36 | 1.06 | 0.92 | 0.91 | – |
| N#CN=C(NCCCOc1cccc(CN2CCCCC2)c1)NCCNC(=O)CCOCCOCCOCCOCCNC(=O)CCc1ccc2n1[B-](F)(F)[N+]1=C(c3ccc[nH]3)C=CC1=C2 [Aminopotentidine-2-NB590] | 0.93 | 0.97 | 1.00 | 1.00 | 1.07 | 1.01 | 1.00 | 1.16 | – |
| COc1ccc2c(n1)c(CCNC(C)=O)cn2CCNC(=O)CCc1ccc2n1[B-](F)(F)[N+]1=C(c3ccc[nH]3)C=CC1=C2 [Azamelatonin-1-NB590] | – | – | – | – | – | – | – | – | NanoBRET Fold Response (AVPR1A; 0.1μM tracer): 2.27; NanoBRET Fold Response (AVPR1A; 1μM tracer): 0.90; NanoBRET Fold Response (HTR7; 0.1μM tracer): 0.99; NanoBRET Fold Response (HTR7; 1μM tracer): 0.99; NanoBRET Fold Response (TSHR; 0.1μM tracer): 1.25; NanoBRET Fold Response (TSHR; 1μM tracer): 0.91; NanoBRET Fold Response (CNR2; 0.1μM tracer): 0.98; NanoBRET Fold Response (CNR2; 1μM tracer): 1.01 |
| CC(C)N(CC[C@H](c1ccccc1)c1cc(CCNC(=O)c2ccc(CNC(=O)CCc3ccc4n3[B-](F)(F)[N+]3=C(c5ccc[nH]5)C=CC3=C4)cc2)ccc1O)C(C)C [Tolterodine-BZ-NB590] | 1.15 | 1.07 | 1.06 | 1.03 | 0.96 | 1.08 | – | 0.25 | – |
